The text below walks through data of publication PMC9130538, “Amino acids in transmembrane helix 1 confer major functional differences between human and mouse orthologs of the polyspecific membrane transporter OCT1” (The Journal of Biological Chemistry, 2022).

In series [1] the target is T1, human OCT1 Cys36Tyr (Homo sapiens, UniProt O15245, C36Y).
T1 construct: expressed in transfected cells
Nature of the series: Uptake by HEK293 cells overexpressing Cys36Tyr human OCT1. Type of series: cell-based. The settings on record: stably transfected HEK293, increasing concentrations, 2 min. The procedure:
(§1) Human–mouse chimeric OCT1 constructs were generated using the overlap extension method ([50]) and have been characterized before ([34]). […] All constructs were validated by capillary sequencing of the complete open reading frame of OCT1 before transfection into HEK293 cells.
(§2) For transient transfection of OCT1 constructs into HEK293 cells for uptake experiments, 5 × 10^5 T-REx-293 cells (Life Technologies) were seeded per well in 12-well plates precoated with poly-D-lysine. […] At 48 h later, transfection efficacy was assessed microscopically by visualizing the GFP signal of the cotransfected GFP vector, and the cells were subsequently used for uptake experiments. […]
(§3) Cellular uptake experiments were performed at 37 °C and pH 7.4 using HBSS supplemented with 10 mM Hepes (in the following referred to as HBSS+). […] Cells were washed twice with 2 ml ice-cold HBSS+ and lysed with 80% acetonitrile supplemented with internal standard, 0.1 N NaOH/0.1% SDS, or radioimmunoprecipitation buffer for LC–MS/MS, liquid scintillation counting, or fluorescence spectroscopy detection, respectively. Intracellular substrate concentrations were measured as described in the following and were then normalized to the amount of total protein in the samples as measured using the bicinchoninic acid assay ([51]). […]

Series [2] has as its target mouse Oct1 Tyr36Cys (Mus musculus, UniProt O08966, Y36C). The settings on record: stably transfected HEK293, increasing concentrations, 2 min. Here is the method:
as §1, §2, §3

In series [3] the target is T2, human OCT1 (Homo sapiens, UniProt O15245).
T2 sequence (O15245 1-554): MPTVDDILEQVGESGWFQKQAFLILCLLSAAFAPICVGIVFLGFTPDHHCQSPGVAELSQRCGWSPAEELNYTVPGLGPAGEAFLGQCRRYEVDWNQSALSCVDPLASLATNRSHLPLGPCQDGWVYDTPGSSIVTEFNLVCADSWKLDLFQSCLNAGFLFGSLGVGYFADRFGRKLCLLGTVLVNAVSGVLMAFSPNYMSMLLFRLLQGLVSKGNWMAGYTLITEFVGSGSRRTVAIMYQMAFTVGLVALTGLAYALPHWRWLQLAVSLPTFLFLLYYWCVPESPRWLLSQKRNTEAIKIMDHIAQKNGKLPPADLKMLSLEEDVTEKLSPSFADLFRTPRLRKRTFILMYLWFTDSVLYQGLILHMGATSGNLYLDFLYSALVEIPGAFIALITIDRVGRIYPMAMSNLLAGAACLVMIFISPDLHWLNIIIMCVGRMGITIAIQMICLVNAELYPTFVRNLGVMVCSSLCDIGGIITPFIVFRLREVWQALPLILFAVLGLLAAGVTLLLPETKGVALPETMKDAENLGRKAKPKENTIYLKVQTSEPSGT
The series can be described thus: Cellular uptake by HEK293 cells overexpressing human OCT1 (wildtype). The following applies: human versus mouse OCT1, stably transfected HEK293. Here is the method:
Generation and characterization of these cell lines has been described in detail before ([34], [48], [49]). Cells were cultured in Dulbecco’s Modified Eagle’s Medium supplemented with 10% fetal bovine serum, 100 U/ml penicillin, and 100 μg/ml streptomycin at 37 °C and 5% CO2 and were passaged twice a week.
At 48 h prior to the experiment, 6 × 10^5 cells were seeded per well in 12-well plates. When using transiently transfected cells, 5 × 10^5 T-REx-293 cells (Life Technologies) were seeded per well in 12-well plates 72 h prior to the experiment, and they were transfected 24 h later as described previously. Twelve-well plates were precoated with poly-D-lysine.
Cellular uptake experiments were performed at 37 °C and pH 7.4 using HBSS supplemented with 10 mM Hepes (in the following referred to as HBSS+). Cells were washed with 1 ml prewarmed (37 °C) HBSS+, and the uptake was initiated by adding 400 μl of prewarmed HBSS+ containing the substrate. Uptake was allowed for exactly 2 min and afterward stopped by adding 2 ml ice-cold HBSS+. Cells were washed twice with 2 ml ice-cold HBSS+ and lysed with 80% acetonitrile supplemented with internal standard, 0.1 N NaOH/0.1% SDS, or radioimmunoprecipitation buffer for LC–MS/MS, liquid scintillation counting, or fluorescence spectroscopy detection, respectively. Intracellular substrate concentrations were measured as described in the following and were then normalized to the amount of total protein in the samples as measured using the bicinchoninic acid assay ([51]).
For LC–MS/MS quantification of intracellular substrate concentrations, the cell lysate was centrifuged at 16,000g for 15 min, and 350 μl of supernatant was evaporated to dryness under nitrogen flow at 40 °C. The sample was reconstituted with 200 μl 0.1% formic acid, and between 2 and 30 μl were injected into the LC–MS/MS system (Table S1).
An API4000 QTRAP tandem mass spectrometer with ESI interface (AB SCIEX) was used, coupled to a Shimadzu Nexera X2 UHPLC system with LC 30AD pumps and SiL 30AC autosampler (Shimadzu).
Intracellular concentrations of radioactively labeled substrates MPP^+ and TEA^+ were quantified using liquid scintillation counting. To this end, 400 μl cell lysate was transferred into a 20 ml scintillation vial, 9 ml Aquasafe 500 Plus liquid scintillator (both Zinsser Analytics) was added, and the sample was measured in the Scintillation Counter LS6500 (Beckman Coulter).
For both analyses, SPSS Statistics, version 28 (SPSS, Inc, IBM) was used.

The conditions of series [4]: human, estimated based on clinical data, ref [9]; cited from earlier work.

mouse Oct1 Tyr36Cys, sequence (O08966 whole entry Y36C): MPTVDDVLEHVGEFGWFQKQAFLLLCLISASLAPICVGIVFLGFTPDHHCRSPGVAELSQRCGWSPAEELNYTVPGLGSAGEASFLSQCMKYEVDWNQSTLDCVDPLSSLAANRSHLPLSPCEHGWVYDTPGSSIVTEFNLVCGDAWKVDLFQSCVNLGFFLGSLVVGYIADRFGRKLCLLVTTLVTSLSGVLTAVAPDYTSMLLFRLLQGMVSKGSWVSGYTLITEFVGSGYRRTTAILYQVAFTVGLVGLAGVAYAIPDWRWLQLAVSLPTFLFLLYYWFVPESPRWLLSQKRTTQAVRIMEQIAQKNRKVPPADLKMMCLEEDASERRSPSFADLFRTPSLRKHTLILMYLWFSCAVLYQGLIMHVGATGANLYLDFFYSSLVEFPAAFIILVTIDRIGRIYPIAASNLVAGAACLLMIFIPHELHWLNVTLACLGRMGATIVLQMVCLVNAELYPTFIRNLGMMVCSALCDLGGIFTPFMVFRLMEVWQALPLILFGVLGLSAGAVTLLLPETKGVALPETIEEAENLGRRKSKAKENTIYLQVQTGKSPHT

Regarding `CC(C)(C)NCC(O)c1cc(O)cc(O)c1` (centres unmarked) [Terbutaline], the “effect of Cys36Tyr in human OCT1 on affinity (KM)” value in series [1] is on record as “did not affect”. Moreover, in series [2], the “effect of Tyr36Cys in mouse OCT1 on affinity (KM)” value is recorded as “did not affect”. The “fold lower affinity (KM) of human OCT1 than mouse Oct1 (higher affinity of mouse Oct1)” value in series [3] is given as “more than sixfold higher affinity of mouse Oct1”.

`CC(Cc1ccc(O)cc1)NCC(O)c1cc(O)cc(O)c1` (centres unmarked) [Fenoterol]: the “clinically relevant (plasma) concentration” value in series [4] is recorded as 2.18 nM. Also, the “fold higher affinity (KM) of human than of mouse OCT1” value in series [3] is reported as 8.1 fold.
